Earlier results in patent publication US20210123868A1, “REAGENT COMPOSITION FOR PH MEASUREMENT” (MIURA CO., LTD., priority 2018, published 2021).

Details: value at 25° C.

acid dissociation constant (pKa)	Molecule
4.7	Cc1c(C2(c3cc(Br)c(O)c(Br)c3C)OS(=O)(=O)c3ccccc32)cc(Br)c(O)c1Br [bromocresol green]
6.3	Cc1cc(C2(c3cc(C)c(O)c(Br)c3)OS(=O)(=O)c3ccccc32)cc(Br)c1O [bromocresol purple]
11.06	alizarin yellow
